Consider three sequences from US6086880A, “Rotavirus peptide compositions and methods of use” (The University of Saskatchewan, priority 1993, dated 2000).

The subject of experiment [1] is Monospecific anti-glycoprotein (VP7) serum. Description: ELISA reactivity of synthetic peptides with monospecific anti-VP7 serum. Format: binding. The settings on record: reciprocal of the dilution giving a 50% end point. The protocol: (§1) The reactivity and specificity of the synthetic peptides were determined by ELISA using either anti-VP7 monospecific VP7 serum or monoclonal antibodies specific for the various regions of VP7 and by adsorption blocking assays. […] As shown in the table, while all of the peptides were immunoreactive with the antiserum, only the peptides representing positions 247-259 and 275-295 were specifically immunoreactive with monoclonals directed to particular determinants.
(§2) ^a Antibody titers were determined by ELISA and are expressed as the
(§3) reciprocal of the dilution giving a 50% end point.
On the technique in general: ELISA stands for enzyme-linked immunosorbent assay.

In experiment [2] the test system is Monoclonal antibody 4B5-5. Description: ELISA reactivity of synthetic peptides with monoclonal antibody 4B5-5. It is filed as binding. The note with it: reciprocal of the dilution giving a 50% end point. As to the method: as §1, §2, §3
Experiment [3] concerns Monoclonal antibody 11D10-4. In words: ELISA reactivity of synthetic peptides with monoclonal antibody 11D10-4. It is filed as binding. The note with it: reciprocal of the dilution giving a 50% end point. The protocol:
as §1, §2, §3

Experiment [4] deals with Monoclonal antibody 11D12-6. In words: ELISA reactivity of synthetic peptides with monoclonal antibody 11D12-6. Format: binding. The settings on record: reciprocal of the dilution giving a 50% end point. As to the method: as §1, §2, §3
Experiment [5] concerns Monoclonal antibody 10D207. In words: ELISA reactivity of synthetic peptides with monoclonal antibody 10D207. Format: binding. The settings on record: reciprocal of the dilution giving a 50% end point. The protocol: as §1, §2, §3
Experiment [6] deals with virus attachment to MA104 cells. Description: Adsorption blocking assay: inhibition of attachment of virus to MA104 cells. It is filed as cell-based. The note with it: FIG. 5. The protocol:
as §1

The subject of experiment [7] is bovine rotavirus isolate C486. Description: 50% plaque reduction assay on sera of mice immunized with KLH-conjugated VP7 peptides. Format: in vivo, CD-1 mice. The note with it: sera of mice given KLH-conjugated peptides; FIG. 7. As to the method:
The sera obtained in Example 3 were tested for their ability to neutralize the infectivity of the bovine rotavirus isolate C486 using a standard 50% plaque reduction assay. In this assay, virus dilutions representing 30-50 PFU were mixed 1:1 with various dilutions of antibody and incubated for 1 hour at 37° C. Virus attachment to MA104 monolayers was allowed to proceed at 37° C. for 2 hours before the virus inoculum was removed; the cells were washed with MEM and then overlaid with 1.6% Bacto-agar (Difco) diluted in MEM and supple-mented with 5 μg of pancreatin per ml, 0.7% of a 1:1000 neutral red stock solution, and 0.1% DEAE-dextran. Plaques appeared after 5 to 6 days of incubation at 37° C.
For orientation: In a plaque reduction assay, fewer plaques than in the control indicate reduced infectivity or spread.

The next experiment relates to VP6 45 kd capsid protein. Description: Binding of 232-255 peptide to VP6 of purified virus (laddering on polyacrylamide gel electrophoresis). The text has this:
Laddering occurred both at the VP6 monomeric molecular weight of 45 kd and at the aggregate molecular weights of 90 kd and 135 kd regions. The increment in the ladder steps matched the MW of the 232-255 peptide. Trypsin treatment of the virus/peptide complex reduced the ladder to a virus profile identical with that of the trypsin-treated virus. The ladder could be detected with antisera produced against the synthetic peptide.

Another experiment has as its system trypsin. Description: Trypsin susceptibility and competition with intact VP4 for trypsin. Format: biochemical. The note with it: for cleavage of VP4 by trypsin in presence of peptide: FIG. 8. The protocol: Susceptibility of the synthetic peptide to trypsin was confirmed by reaction with trypsin followed by electrophoresis. […] It was also established that the peptide could compete with intact VP4 for the enzyme. This was determined by measuring the ability of increasing concentrations of the synthetic peptide to reduce the amount of VP4 cleaved into the two products of molecular weight 60 kd and 28 kd.

In experiment [8] the test system is infectious virus on MA104 cells. In words: Plaque reduction by 232-255 peptide mixed with infectious virus on MA104 cells. It is filed as cell-based. The note with it: 100 pfu virus with 100 μg, 200 μg and 300 μg peptide. The protocol:
In a protocol similar to a standard plaque reduction assay, MA104 cells were treated with 100 pfu of the virus in the absence of and in the presence of 100 μg, 200 μg and 300 μg of the 232-255 peptide.

In another experiment the test system is BRV strain C486. Description: Prophylactic oral 232-255 peptide in neonatal mice before challenge. Format: in vivo. Further details: key to Diarrheal Score: 0: no sign of diarrhea in live mice, or on necropsy; +: no external signs of diarrhea but semi-liquid colon contents at autopsy; ++: fluid was apparent on palpation of the abdomen and the colon was filled with liquid feces and gas; +++: the external anal region was soiled with feces and intestinal fluid was present on palpation; ++++: liquid feces were present around the anal region and on palpation of the abdomen intestinal fluid was present and oozed from the anus; severe dehydration, internal liquid content in colon and caecum and distention due to accumulation of gas. The note with it: for Diarrheal Score: about one hour before 10^4 pfu; for Virus Titre: mouse intestines; for Plasma D-Xylose: no challenge: 119. The protocol: The 232-255 peptide synthesized in Example 7 was diluted serially in Eagle's Minimal Essential Medium. The peptide solutions of various dilutions were administered in 100 μl dosages to neonatal mice by oral administration. The pups were born of rotavirus-free strain CD-1 dams and administration was at 7 days of age (when the pups weigh about 4 g). Approximately one hour later the mice were challenged with 10^4 pfu of BRV strain C486. Clinical protection was scored as described in Example 6. Diarrhea was scored clinically as well as on necropsy, and plasma D-xylose was determined by administering 100 μl of 5% w/v D-xylose solution, sacrificing the mice two hours later, collecting the blood and determining plasma D-xylose concentration as described above. Virus titers were determined in the mouse intestines by suspending in MEM and homogenizing for virus titration. Mice which received no challenge had plasma D-xylose levels of 119 μg/100 μl and zero viral titers.

No end group written: not given here.

RNCKKLGPRENVA [p247-259]: the “Antibody titer (ELISA), monospecific anti-glycoprotein (VP7) serum with synthetic peptide” value in experiment [1] was 1,000. The “Antibody titer (ELISA), monoclonal antibody 4B5-5 with synthetic peptide” value in [2] was 5,000. Also, the “Antibody titer (ELISA), monoclonal antibody 11D10-4 with synthetic peptide” value in experiment [3] was 4,000. The “Antibody titer (ELISA), monoclonal antibody 11D12-6 with synthetic peptide” value in [4] was determined as 100. Moreover, the “Antibody titer (ELISA), monoclonal antibody 10D207 with synthetic peptide” value in experiment [5] is given as 20. Also, in [6], the “ability to inhibit attachment of virus to MA104 cells” value is reported as “able to block virus attachment”. Moreover, in [7], the “virus-neutralizing antibodies induced (50% plaque reduction assay)” value is recorded as “induced virus-neutralizing antibodies”.
In the case of “NIAPASIVSRNIVYTRAQPNDIA [Peptide 232-255]”, the “laddering of VP6 on polyacrylamide gel electrophoresis” value with VP6 45 kd capsid protein (25 μg peptide with 2 μg purified virus) was “laddering was not apparent”; in the experiment with VP6 45 kd capsid protein (100 μg peptide with 2 μg purified virus, 30 minutes at 37° C.), “showed a laddering effect”. For the same sequence, the figures for the “cleavage of VP4 by trypsin in presence of peptide” value in the experiment with trypsin (25 μg (232-255)/25 μg VP4) and with trypsin (synthetic peptide increased to 200 μg) were “complete cleavage of VP4” and “intact VP4 is evident”, respectively. In addition, the “susceptibility of the peptide to trypsin” value in the experiment on trypsin (reaction with trypsin followed by electrophoresis) is recorded as “cleaved by trypsin in a dose-dependent manner”. In addition, in experiment [8], the plaque reduction result is “capable of plaque reduction in a dose-dependent manner”. Further, the “Diarrheal Score” value was “+++” in the experiment with BRV strain C486 (100 μg peptide oral), “++” in the experiment on BRV strain C486 (250 μg peptide oral), 0 in the experiment with BRV strain C486 (500 μg peptide oral) and 0 with BRV strain C486 (1000 μg peptide oral). Besides, the “Virus Titre” value in the experiment on BRV strain C486 (100 μg peptide oral) is listed as 1.2 × 10^3 PFU/ml; with BRV strain C486 (250 μg peptide oral) it was 4.0 × 10^2 PFU/ml; with BRV strain C486 (500 μg peptide oral) it was 0 PFU/ml; with BRV strain C486 (1000 μg peptide oral), 0 PFU/ml. The “Plasma D-Xylose” value with BRV strain C486 (100 μg peptide oral) is on record as 92 μg/100 μl; in the experiment with BRV strain C486 (250 μg peptide oral), 70 μg/100 μl; in the experiment on BRV strain C486 (500 μg peptide oral) it was 101 μg/100 μl; with BRV strain C486 (1000 μg peptide oral) it was 112 μg/100 μl.
For the sequence YQQTDEANK [p174-183], the “Antibody titer (ELISA), monospecific anti-glycoprotein (VP7) serum with synthetic peptide” value in [1] was 2,500. The “Antibody titer (ELISA), monoclonal antibody 4B5-5 with synthetic peptide” value in experiment [2] came to 50. Besides, the “Antibody titer (ELISA), monoclonal antibody 11D10-4 with synthetic peptide” value in experiment [3] came out at 10. Further, the “Antibody titer (ELISA), monoclonal antibody 11D12-6 with synthetic peptide” value in [4] was 10. Moreover, the “Antibody titer (ELISA), monoclonal antibody 10D207 with synthetic peptide” value in experiment [5] was 10.
